Test results reported in patent US6461997B1, “Triazole sulfones having herbicidal activity” (Monsanto Technology LLC, priority 1999, dated 2002).

How the values were obtained:
SORVU (shattercane) = assay: Pre-emergence herbicidal activity, warm season; type: in vivo, Sorghum vulgare; settings: GR80 = lowest tested rate (300, 100, 30, 10 g/ha) with 80% or greater inhibition; approx. 14 days after treating; 30/21° C.
How it was run: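 GR80 values derive from percent inhibition relative to untreated plants, read roughly 14 days after sowing and pre-emergence soil-surface treatment (compound in 50:50 acetone/water; rates typically 10, 30, 100, 300 g/ha). Warm-season weeds grew at 30/21° C day/night, cool-season ones at 18/13° C; an asterisk marks activity without reaching 80% at the highest rate.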

SASKR (russian thistle) = assay: Pre-emergence herbicidal activity, cool season; type: in vivo, Salsola kali; settings: lowest tested rate with 80% or greater inhibition; rates 300, 100, 30, 10 g/ha; about 14 days
How it was run: (§1)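 Seeds sown in sterilised fertilised topsoil received surface-applied compound in 50:50 acetone/water, typically at 300, 100, 30 and 10 g/ha, then greenhouse-grown at 30/21° C (warm-season species) or 18/13° C (cool-season species). Percent inhibition versus untreated plants was scored at about 14 days, giving GR80; an asterisk marks activity short of 80% at the top rate.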

STEME (common chickweed) = assay: Pre-emergence herbicidal activity, cool season; type: in vivo, Stellaria media; settings: lowest tested rate with 80% or greater inhibition; rates 300, 100, 30, 10 g/ha; about 14 days
How it was run: as §1

DATST (jimsonweed) = assay: Pre-plant incorporated (PPI) herbicidal activity, warm season; type: in vivo, Datura stramonium
How it was run: (§2)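 Spray-treated, thoroughly mixed cover soil was laid over seeds; untreated soil served as control cover. Day/night temperatures: 30/21° C warm season, 18/13° C cool season. Efficacy recorded ~14 days after planting as percent inhibition.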

ECHCG (barnyardgrass) = assay: as above; type: in vivo, Echinochloa crus-galli
How it was run: as §2

[1] = test system: PANMI (wild proso millet); assay: as above; type: in vivo, Panicum miliaceum
How it was run: as §2

DIGSA (large crabgrass) = assay: as above; type: in vivo, Digitaria sanguinalis
How it was run: as §2

[2] = test system: VERPE (creeping speedwell); assay: Pre-plant incorporated (PPI) herbicidal activity, cool season; type: in vivo, Veronica persicaria; settings: pre-plant incorporated; lowest tested rate with 80% or greater inhibition; about 14 days
How it was run: as §2

[3] = test system: AGRRE (quackgrass (seedling)); assay: as above; type: in vivo, Elymus repens
How it was run: as §2

[4] = pre-plant incorporated, lowest tested rate with 80% or greater inhibition, about 14 days

CCSC(F)(F)S(=O)(=O)c1ncn(C(=O)N(CC)CC)n1 [Example 8, 1-(N,N-diethylcarbamoyl)-3-[difluoro(ethylthio)methylsulfonyl]-1,2,4-triazole]
Pre-emergence activity (GR80) SORVU (SORVU (shattercane)): 100 g/ha | Pre-emergence activity GR80, SASKR (SASKR (russian thistle)): 300 g/ha | Pre-emergence activity GR80, STEME (STEME (common chickweed)): [empty] | inhibition at 30 g/ha (DATST (jimsonweed); Datura stramonium, PPI application, 30 g/ha, read-out: Percent inhibition DATST): 30% | inhibition at 100 g/ha (DATST (jimsonweed); Datura stramonium, PPI application, 100 g/ha, read-out: Percent inhibition DATST): 60% | inhibition at 300 g/ha (DATST (jimsonweed); Datura stramonium, PPI application, 300 g/ha, read-out: Percent inhibition DATST): 100% | inhibition at 900 g/ha (DATST (jimsonweed); Datura stramonium, PPI application, 900 g/ha, read-out: Percent inhibition DATST): 100% | PPI activity (GR80) DATST (DATST (jimsonweed); pre-plant incorporated, GR80 = lowest tested rate with 80% or greater inhibition, approx. 14 days after treating, 30/21° C.): 100 g/ha | inhibition at 30 g/ha (ECHCG (barnyardgrass); Echinochloa crus-galli, PPI application, 30 g/ha, read-out: Percent inhibition ECHCG): 90% | inhibition at 100 g/ha (ECHCG (barnyardgrass); Echinochloa crus-galli, PPI application, 100 g/ha, read-out: Percent inhibition ECHCG): 100% | inhibition at 300 g/ha (ECHCG (barnyardgrass); Echinochloa crus-galli, PPI application, 300 g/ha, read-out: Percent inhibition ECHCG): 100% | inhibition at 900 g/ha (ECHCG (barnyardgrass); Echinochloa crus-galli, PPI application, 900 g/ha, read-out: Percent inhibition ECHCG): 100% | PPI activity GR80, ECHCG (ECHCG (barnyardgrass); [4]): 30 g/ha | inhibition at 30 g/ha ([1]; Panicum miliaceum, PPI application, 30 g/ha, read-out: Percent inhibition PANMI): 100% | inhibition at 100 g/ha ([1]; Panicum miliaceum, PPI application, 100 g/ha, read-out: Percent inhibition PANMI): 100% | inhibition at 300 g/ha ([1]; Panicum miliaceum, PPI application, 300 g/ha, read-out: Percent inhibition PANMI): 100% | inhibition at 900 g/ha ([1]; Panicum miliaceum, PPI application, 900 g/ha, read-out: Percent inhibition PANMI): 100% | PPI activity GR80, PANMI [1, 4]: 10 g/ha | inhibition at 30 g/ha (DIGSA (large crabgrass); Digitaria sanguinalis, PPI application, 30 g/ha, read-out: Percent inhibition DIGSA): 100% | inhibition at 100 g/ha (DIGSA (large crabgrass); Digitaria sanguinalis, PPI application, 100 g/ha, read-out: Percent inhibition DIGSA): 100% | inhibition at 300 g/ha (DIGSA (large crabgrass); Digitaria sanguinalis, PPI application, 300 g/ha, read-out: Percent inhibition DIGSA): 100% | inhibition at 900 g/ha (DIGSA (large crabgrass); Digitaria sanguinalis, PPI application, 900 g/ha, read-out: Percent inhibition DIGSA): 100% | PPI activity GR80, DIGSA (DIGSA (large crabgrass); [4]): 30 g/ha | PPI activity GR80, VERPE [2]: 100 g/ha | inhibition at 30 g/ha ([3]; Elymus repens, weed, PPI application, 30 g/ha, read-out: Percent inhibition AGRRE): 0% | inhibition at 100 g/ha ([3]; Elymus repens, weed, PPI application, 100 g/ha, read-out: Percent inhibition AGRRE): 40% | inhibition at 300 g/ha ([3]; Elymus repens, weed, PPI application, 300 g/ha, read-out: Percent inhibition AGRRE): 70% | inhibition at 900 g/ha ([3]; Elymus repens, weed, PPI application, 900 g/ha, read-out: Percent inhibition AGRRE): 100% | PPI activity GR80, AGRRE [3, 4]: 300 g/ha
